This is an account of results in US8173145B2, “Formulation containing phosphate derivatives of electron transfer agents” (Vital Health Sciences Pty. Ltd., priority 2000, dated 2012).

A short description of this series: foam stability / surface active properties test. As to conditions: 0.1 g in 10 ml distilled water, shaken; foam examined daily over four days. It is filed as physicochemical. The protocol: 0.1 g of pure di-sodium mono-tocopheryl phosphate was dissolved in 10 ml of pure distilled water in a 50 ml cylindrical stoppered vessel.

For the compound `Cc1c(C)c2c(c(C)c1OP(=O)([O-])[O-])CC[C@@](C)(CCC[C@H](C)CCC[C@H](C)CCCC(C)C)O2.[Na+].[Na+]` [di-sodium mono-tocopheryl phosphate], the Foam stability result is “complete stability for one day”.
